Tests used:
Experiment in all cases: Competitive ABPP / direct target identification with alkyne probe 9 in HEK293 cell lysates
Type in all cases: binding, H. sapiens
[1] = molecular target: T1, HEK293 cell lysates (proteome-wide targets of probe 9) (Homo sapiens, UniProt Q04837); conditions: protein SSBP1
T1 construct: endogenous in cells; host or cells: HEK293 cell lysate

[2] = molecular target: T2, HEK293 cell lysates (proteome-wide targets of probe 9) (Homo sapiens, UniProt P81605); conditions: protein DCD
T2 construct: endogenous in cells; host or cells: HEK293 cell lysate
T2 sequence (P81605 20-110): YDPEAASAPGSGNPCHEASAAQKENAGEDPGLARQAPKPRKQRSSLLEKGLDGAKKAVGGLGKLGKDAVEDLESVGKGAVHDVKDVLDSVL

[3] = molecular target: T3, HEK293 cell lysates (proteome-wide targets of probe 9) (Homo sapiens, UniProt P04075); conditions: protein ALDOA
T3 construct: endogenous in cells; host or cells: HEK293 cell lysate
T3 sequence (P04075 whole entry): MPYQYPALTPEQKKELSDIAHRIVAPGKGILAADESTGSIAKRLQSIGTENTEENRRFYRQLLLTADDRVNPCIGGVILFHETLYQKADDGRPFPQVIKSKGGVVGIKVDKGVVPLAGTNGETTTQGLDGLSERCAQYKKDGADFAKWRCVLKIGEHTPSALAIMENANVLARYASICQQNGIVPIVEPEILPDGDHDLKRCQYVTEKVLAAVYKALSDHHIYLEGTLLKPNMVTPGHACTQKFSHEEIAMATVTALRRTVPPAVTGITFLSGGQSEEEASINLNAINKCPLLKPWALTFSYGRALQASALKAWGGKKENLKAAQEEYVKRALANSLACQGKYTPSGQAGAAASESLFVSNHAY

[4] = molecular target: T4, HEK293 cell lysates (proteome-wide targets of probe 9) (Homo sapiens, UniProt P60174); conditions: protein TPI1
T4 construct: endogenous in cells; host or cells: HEK293 cell lysate
T4 sequence (P60174 whole entry): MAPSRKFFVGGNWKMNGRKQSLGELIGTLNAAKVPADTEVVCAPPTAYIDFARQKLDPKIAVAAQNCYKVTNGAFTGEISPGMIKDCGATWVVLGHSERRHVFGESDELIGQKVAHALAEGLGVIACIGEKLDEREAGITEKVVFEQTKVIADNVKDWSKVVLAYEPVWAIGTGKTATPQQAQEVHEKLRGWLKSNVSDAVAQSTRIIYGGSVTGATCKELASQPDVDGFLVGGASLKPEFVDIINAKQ

[5] = molecular target: T5, HEK293 cell lysates (proteome-wide targets of probe 9) (Homo sapiens, UniProt P62826); conditions: protein RAN
T5 construct: endogenous in cells; host or cells: HEK293 cell lysate

[6] = molecular target: T6, HEK293 cell lysates (proteome-wide targets of probe 9) (Homo sapiens, UniProt P00558); conditions: protein PGK1
T6 construct: endogenous in cells; host or cells: HEK293 cell lysate

[7] = molecular target: T7, HEK293 cell lysates (proteome-wide targets of probe 9) (Homo sapiens, UniProt P11021); conditions: protein HSPA5
T7 construct: endogenous in cells; host or cells: HEK293 cell lysate

[8] = molecular target: T8, HEK293 cell lysates (proteome-wide targets of probe 9) (Homo sapiens, UniProt P11142); conditions: protein HSPA8
T8 construct: endogenous in cells; host or cells: HEK293 cell lysate

[9] = molecular target: T9, HEK293 cell lysates (proteome-wide targets of probe 9) (Homo sapiens, UniProt P10809); conditions: protein HSPD1
T9 construct: endogenous in cells; host or cells: HEK293 cell lysate
T9 sequence (P10809 27-573): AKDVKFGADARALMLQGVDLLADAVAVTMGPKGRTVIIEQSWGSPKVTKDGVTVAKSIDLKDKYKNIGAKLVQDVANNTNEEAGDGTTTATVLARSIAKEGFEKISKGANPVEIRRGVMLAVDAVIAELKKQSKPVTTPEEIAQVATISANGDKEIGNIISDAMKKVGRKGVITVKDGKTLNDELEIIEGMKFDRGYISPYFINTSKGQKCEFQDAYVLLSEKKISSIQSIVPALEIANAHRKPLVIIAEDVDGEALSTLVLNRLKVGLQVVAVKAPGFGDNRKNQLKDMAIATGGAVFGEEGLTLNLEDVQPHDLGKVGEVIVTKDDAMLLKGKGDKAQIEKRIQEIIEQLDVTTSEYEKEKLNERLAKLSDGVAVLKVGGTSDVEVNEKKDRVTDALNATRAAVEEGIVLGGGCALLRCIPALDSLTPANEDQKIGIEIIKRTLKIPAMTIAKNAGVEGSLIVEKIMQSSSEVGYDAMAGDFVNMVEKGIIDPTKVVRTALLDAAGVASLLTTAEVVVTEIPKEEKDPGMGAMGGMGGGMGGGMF

[10] = molecular target: T10, HEK293 cell lysates (proteome-wide targets of probe 9) (Homo sapiens, UniProt Q9H6P5); conditions: protein TASP1 (Threonine aspartase 1)
T10 construct: endogenous in cells; host or cells: HEK293 cell lysate
T10 sequence (Q9H6P5 whole entry): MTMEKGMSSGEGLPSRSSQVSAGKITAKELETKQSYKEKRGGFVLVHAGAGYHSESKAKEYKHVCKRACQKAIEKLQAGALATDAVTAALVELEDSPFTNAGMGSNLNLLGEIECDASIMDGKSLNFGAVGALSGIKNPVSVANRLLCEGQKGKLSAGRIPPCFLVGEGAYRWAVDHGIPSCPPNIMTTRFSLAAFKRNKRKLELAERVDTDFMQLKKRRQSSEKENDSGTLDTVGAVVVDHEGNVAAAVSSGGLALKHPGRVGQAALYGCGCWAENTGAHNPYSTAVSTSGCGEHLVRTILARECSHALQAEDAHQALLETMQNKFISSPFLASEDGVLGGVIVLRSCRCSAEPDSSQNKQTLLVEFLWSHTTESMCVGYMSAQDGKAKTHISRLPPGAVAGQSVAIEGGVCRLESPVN

[11] = molecular target: T11, HEK293 cell lysates (proteome-wide targets of probe 9) (Homo sapiens, UniProt P13639); conditions: protein EEF2
T11 construct: endogenous in cells; host or cells: HEK293 cell lysate

[12] = molecular target: T12, HEK293 cell lysates (proteome-wide targets of probe 9) (Homo sapiens, UniProt P26373); conditions: protein RPL13
T12 construct: endogenous in cells; host or cells: HEK293 cell lysate

[13] = molecular target: T13, HEK293 cell lysates (proteome-wide targets of probe 9) (Homo sapiens, UniProt P62829); conditions: protein RPL23
T13 construct: endogenous in cells; host or cells: HEK293 cell lysate

[14] = molecular target: T14, HEK293 cell lysates (proteome-wide targets of probe 9) (Homo sapiens, UniProt P00338); conditions: protein LDHA
T14 construct: endogenous in cells; host or cells: HEK293 cell lysate

[15] = molecular target: T15, HEK293 cell lysates (proteome-wide targets of probe 9) (Homo sapiens, UniProt P12277); conditions: protein CKB
T15 construct: endogenous in cells; host or cells: HEK293 cell lysate

[16] = molecular target: T16, HEK293 cell lysates (proteome-wide targets of probe 9) (Homo sapiens, UniProt P07900); conditions: protein HSP90AA1
T16 construct: endogenous in cells; host or cells: HEK293 cell lysate

[17] = molecular target: T17, HEK293 cell lysates (proteome-wide targets of probe 9) (Homo sapiens, UniProt P11586); conditions: protein MTHFD1
T17 construct: endogenous in cells; host or cells: HEK293 cell lysate

[18] = molecular target: T18, HEK293 cell lysates (proteome-wide targets of probe 9) (Homo sapiens, UniProt P55060); conditions: protein CSE1L
T18 construct: endogenous in cells; host or cells: HEK293 cell lysate

[19] = molecular target: T19, HEK293 cell lysates (proteome-wide targets of probe 9) (Homo sapiens, UniProt P06748); conditions: protein NPM1
T19 construct: endogenous in cells; host or cells: HEK293 cell lysate
T19 sequence (P06748 whole entry): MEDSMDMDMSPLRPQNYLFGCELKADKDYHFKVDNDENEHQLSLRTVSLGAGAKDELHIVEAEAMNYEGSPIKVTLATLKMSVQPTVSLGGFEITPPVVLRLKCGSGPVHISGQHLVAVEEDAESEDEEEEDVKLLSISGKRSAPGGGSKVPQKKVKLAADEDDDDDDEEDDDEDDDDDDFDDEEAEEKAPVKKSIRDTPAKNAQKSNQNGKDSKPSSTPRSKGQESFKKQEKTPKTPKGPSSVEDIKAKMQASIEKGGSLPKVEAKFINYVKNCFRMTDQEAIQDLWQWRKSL

[20] = molecular target: T20, HEK293 cell lysates (proteome-wide targets of probe 9) (Homo sapiens, UniProt Q8NC51); conditions: protein SERBP1
T20 construct: endogenous in cells; host or cells: HEK293 cell lysate

[21] = molecular target: T21, HEK293 cell lysates (proteome-wide targets of probe 9) (Homo sapiens, UniProt P23528); conditions: protein CFL1
T21 construct: endogenous in cells; host or cells: HEK293 cell lysate

[22] = molecular target: T22, HEK293 cell lysates (proteome-wide targets of probe 9) (Homo sapiens, UniProt P07737); conditions: protein PFN1
T22 construct: endogenous in cells; host or cells: HEK293 cell lysate

[23] = molecular target: T23, HEK293 cell lysates (proteome-wide targets of probe 9) (Homo sapiens, UniProt P63104); conditions: protein YWHAZ
T23 construct: endogenous in cells; host or cells: HEK293 cell lysate

[24] = molecular target: T24, HEK293 cell lysates (proteome-wide targets of probe 9) (Homo sapiens, UniProt Q07020); conditions: protein RPL18
T24 construct: endogenous in cells; host or cells: HEK293 cell lysate

[25] = molecular target: T25, HEK293 cell lysates (proteome-wide targets of probe 9) (Homo sapiens, UniProt Q13642); conditions: protein FHL1
T25 construct: endogenous in cells; host or cells: HEK293 cell lysate
T25 sequence (Q13642 whole entry): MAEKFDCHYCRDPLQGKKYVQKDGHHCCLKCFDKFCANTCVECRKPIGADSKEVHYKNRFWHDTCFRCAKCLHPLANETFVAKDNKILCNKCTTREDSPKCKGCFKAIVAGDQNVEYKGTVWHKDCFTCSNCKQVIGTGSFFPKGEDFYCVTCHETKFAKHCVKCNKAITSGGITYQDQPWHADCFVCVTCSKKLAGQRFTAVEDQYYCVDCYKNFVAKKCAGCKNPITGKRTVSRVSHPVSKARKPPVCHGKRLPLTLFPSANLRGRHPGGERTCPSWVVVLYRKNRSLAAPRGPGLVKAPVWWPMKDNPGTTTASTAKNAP

[26] = molecular target: T26, HEK293 cell lysates (proteome-wide targets of probe 9) (Homo sapiens, UniProt P49327); conditions: protein FASN
T26 construct: endogenous in cells; host or cells: HEK293 cell lysate
T26 sequence (P49327 whole entry): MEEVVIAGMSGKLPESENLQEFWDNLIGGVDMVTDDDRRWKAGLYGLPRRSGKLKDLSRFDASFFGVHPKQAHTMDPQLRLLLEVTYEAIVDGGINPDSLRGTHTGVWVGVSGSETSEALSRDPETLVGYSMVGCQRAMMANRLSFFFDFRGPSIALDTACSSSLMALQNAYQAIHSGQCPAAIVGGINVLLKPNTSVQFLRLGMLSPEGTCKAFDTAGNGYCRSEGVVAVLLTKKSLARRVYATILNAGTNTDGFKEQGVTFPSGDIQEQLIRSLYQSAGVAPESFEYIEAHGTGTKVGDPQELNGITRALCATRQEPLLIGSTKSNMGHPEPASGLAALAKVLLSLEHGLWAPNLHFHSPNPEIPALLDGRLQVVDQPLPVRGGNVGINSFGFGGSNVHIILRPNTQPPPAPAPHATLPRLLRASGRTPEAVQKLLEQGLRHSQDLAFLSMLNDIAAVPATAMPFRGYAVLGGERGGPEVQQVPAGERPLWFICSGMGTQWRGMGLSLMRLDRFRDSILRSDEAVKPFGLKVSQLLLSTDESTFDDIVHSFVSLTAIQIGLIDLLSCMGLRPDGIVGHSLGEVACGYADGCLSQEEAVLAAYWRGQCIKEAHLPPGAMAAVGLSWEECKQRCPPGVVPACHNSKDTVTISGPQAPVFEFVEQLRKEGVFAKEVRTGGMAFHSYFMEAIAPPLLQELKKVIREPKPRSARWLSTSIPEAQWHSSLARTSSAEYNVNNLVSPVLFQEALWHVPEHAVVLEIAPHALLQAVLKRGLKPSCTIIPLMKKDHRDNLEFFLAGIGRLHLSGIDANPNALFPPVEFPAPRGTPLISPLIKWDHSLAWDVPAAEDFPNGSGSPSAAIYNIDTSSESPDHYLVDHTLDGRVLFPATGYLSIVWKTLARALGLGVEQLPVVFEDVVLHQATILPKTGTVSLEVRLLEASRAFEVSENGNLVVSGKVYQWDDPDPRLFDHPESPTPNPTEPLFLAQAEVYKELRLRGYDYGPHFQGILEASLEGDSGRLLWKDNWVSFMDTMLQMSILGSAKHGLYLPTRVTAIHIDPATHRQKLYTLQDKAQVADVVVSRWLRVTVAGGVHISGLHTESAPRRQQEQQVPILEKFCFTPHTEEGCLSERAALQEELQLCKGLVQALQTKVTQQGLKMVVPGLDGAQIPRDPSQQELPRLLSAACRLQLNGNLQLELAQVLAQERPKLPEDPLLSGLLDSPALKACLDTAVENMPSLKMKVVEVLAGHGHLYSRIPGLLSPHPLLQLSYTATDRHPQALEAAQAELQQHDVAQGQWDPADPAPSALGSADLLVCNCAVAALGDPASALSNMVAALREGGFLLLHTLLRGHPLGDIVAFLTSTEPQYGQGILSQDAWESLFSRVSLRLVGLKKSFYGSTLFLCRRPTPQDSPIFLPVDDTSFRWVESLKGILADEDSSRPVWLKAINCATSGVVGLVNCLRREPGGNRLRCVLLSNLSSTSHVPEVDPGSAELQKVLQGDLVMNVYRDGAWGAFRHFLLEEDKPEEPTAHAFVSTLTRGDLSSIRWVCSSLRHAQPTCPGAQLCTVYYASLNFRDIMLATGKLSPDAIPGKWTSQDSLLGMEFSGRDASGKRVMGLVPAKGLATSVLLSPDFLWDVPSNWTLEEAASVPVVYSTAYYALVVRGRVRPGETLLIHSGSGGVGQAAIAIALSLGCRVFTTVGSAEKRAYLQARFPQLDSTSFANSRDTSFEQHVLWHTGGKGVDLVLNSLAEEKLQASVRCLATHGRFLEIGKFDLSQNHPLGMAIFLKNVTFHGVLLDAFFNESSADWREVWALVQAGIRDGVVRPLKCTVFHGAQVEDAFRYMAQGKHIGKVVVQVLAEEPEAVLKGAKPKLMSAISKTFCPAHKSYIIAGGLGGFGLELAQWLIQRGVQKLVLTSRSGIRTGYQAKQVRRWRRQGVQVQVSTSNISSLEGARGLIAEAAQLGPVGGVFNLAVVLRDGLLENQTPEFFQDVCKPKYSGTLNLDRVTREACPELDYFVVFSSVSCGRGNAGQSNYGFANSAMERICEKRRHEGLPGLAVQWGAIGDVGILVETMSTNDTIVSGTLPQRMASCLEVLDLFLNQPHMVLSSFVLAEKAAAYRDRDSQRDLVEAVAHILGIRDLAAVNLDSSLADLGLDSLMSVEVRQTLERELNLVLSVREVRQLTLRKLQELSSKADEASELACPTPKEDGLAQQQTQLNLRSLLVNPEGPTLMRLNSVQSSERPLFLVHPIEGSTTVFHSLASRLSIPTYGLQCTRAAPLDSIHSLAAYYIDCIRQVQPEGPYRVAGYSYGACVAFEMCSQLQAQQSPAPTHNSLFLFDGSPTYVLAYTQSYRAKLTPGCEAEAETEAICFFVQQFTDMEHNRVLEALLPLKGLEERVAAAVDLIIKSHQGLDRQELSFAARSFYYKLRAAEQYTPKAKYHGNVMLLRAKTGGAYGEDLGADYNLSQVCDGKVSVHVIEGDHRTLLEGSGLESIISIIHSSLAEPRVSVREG

[27] = molecular target: T27, HEK293 cell lysates (proteome-wide targets of probe 9) (Homo sapiens, UniProt P62424); conditions: protein RPL7A
T27 construct: endogenous in cells; host or cells: HEK293 cell lysate

[28] = molecular target: T28, HEK293 cell lysates (proteome-wide targets of probe 9) (Homo sapiens, UniProt P50914); conditions: protein RPL14
T28 construct: endogenous in cells; host or cells: HEK293 cell lysate

[29] = molecular target: T29, HEK293 cell lysates (proteome-wide targets of probe 9) (Homo sapiens, UniProt P32119); conditions: protein PRDX2
T29 construct: endogenous in cells; host or cells: HEK293 cell lysate
T29 sequence (P32119 whole entry): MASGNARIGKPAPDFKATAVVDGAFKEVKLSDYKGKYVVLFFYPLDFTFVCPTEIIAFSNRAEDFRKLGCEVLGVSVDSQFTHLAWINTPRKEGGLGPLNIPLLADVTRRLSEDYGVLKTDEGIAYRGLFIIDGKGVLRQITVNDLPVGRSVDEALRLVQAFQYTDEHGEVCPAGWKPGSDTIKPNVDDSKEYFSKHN

[30] = molecular target: T30, HEK293 cell lysates (proteome-wide targets of probe 9) (Homo sapiens, UniProt P07437); conditions: protein TUBB
T30 construct: endogenous in cells; host or cells: HEK293 cell lysate

[31] = molecular target: T31, HEK293 cell lysates (proteome-wide targets of probe 9) (Homo sapiens, UniProt P23526); conditions: protein AHCY
T31 construct: endogenous in cells; host or cells: HEK293 cell lysate

C#CCCCP(=O)(OCC)N1CCCC(N)C1=O.O=C(O)C(F)(F)F (mixture of isomers) [Compound 9]
Log2-fold change (9/DMSO) [1]: -1.05 | Log2-fold change (9/DMSO) [2]: -2.5876 | Log2-fold change (9/DMSO) [3]: 0.3187 | Log2-fold change (9/DMSO) [4]: 0.2166 | Log2-fold change (9/DMSO) [5]: 0.5658 | Log2-fold change (9/DMSO) [6]: -0.05307 | Log2-fold change (9/DMSO) [7]: -0.3942 | Log2-fold change (9/DMSO) [8]: 0.1798 | Log2-fold change (9/DMSO) [9]: -1.284 | Log2-fold change (9/DMSO) [10]: -4.505 | Log2-fold change (9/DMSO) [11]: 0.2112 | Log2-fold change (9/DMSO) [12]: 1.809 | Log2-fold change (9/DMSO) [13]: 0.1532 | Log2-fold change (9/DMSO) [14]: -0.2121 | Log2-fold change (9/DMSO) [15]: 0.9157 | Log2-fold change (9/DMSO) [16]: -0.06179 | Log2-fold change (9/DMSO) [17]: 0.4766 | Log2-fold change (9/DMSO) [18]: 0.5768 | Log2-fold change (9/DMSO) [19]: 0.3807 | Log2-fold change (9/DMSO) [20]: -0.5195 | Log2-fold change (9/DMSO) [21]: 0.4225 | Log2-fold change (9/DMSO) [22]: 0.6639 | Log2-fold change (9/DMSO) [23]: 0.2647 | Log2-fold change (9/DMSO) [24]: 1.2987 | Log2-fold change (9/DMSO) [25]: -0.4077 | Log2-fold change (9/DMSO) [26]: 0.4818 | Log2-fold change (9/DMSO) [27]: 1.788 | Log2-fold change (9/DMSO) [28]: 0.6133 | Log2-fold change (9/DMSO) [29]: 0.06438 | Log2-fold change (9/DMSO) [30]: 1.741 | Log2-fold change (9/DMSO) [31]: -0.3328

CCCCCc1ccc(SCCP(=O)(OCC)N2CCC[C@H](N)C2=O)cc1.O=C(O)C(F)(F)F (some centres unmarked) [Compound 16]
Log2-fold change (16/9) [1]: -1.78 | Log2-fold change (16/9) [2]: 2.05 | Log2-fold change (16/9) [3]: -0.5623 | Log2-fold change (16/9) [4]: -0.0839 | Log2-fold change (16/9) [5]: -1.91 | Log2-fold change (16/9) [6]: 0.07234 | Log2-fold change (16/9) [7]: 0.6165 | Log2-fold change (16/9) [8]: -0.08018 | Log2-fold change (16/9) [9]: 0.04221 | Log2-fold change (16/9) [10]: 0.8543 | Log2-fold change (16/9) [11]: -0.2717 | Log2-fold change (16/9) [12]: -0.8436 | Log2-fold change (16/9) [13]: -1.084 | Log2-fold change (16/9) [14]: 0.1049 | Log2-fold change (16/9) [15]: -0.7041 | Log2-fold change (16/9) [16]: -0.09553 | Log2-fold change (16/9) [17]: -0.2924 | Log2-fold change (16/9) [18]: 0.04384 | Log2-fold change (16/9) [19]: -0.43 | Log2-fold change (16/9) [20]: -1.208 | Log2-fold change (16/9) [21]: -0.1396 | Log2-fold change (16/9) [22]: -2.001 | Log2-fold change (16/9) [23]: 0.4135 | Log2-fold change (16/9) [24]: -1.003 | Log2-fold change (16/9) [25]: 0.2096 | Log2-fold change (16/9) [26]: -0.4881 | Log2-fold change (16/9) [27]: 0.2888 | Log2-fold change (16/9) [28]: -1.54 | Log2-fold change (16/9) [29]: 1.348 | Log2-fold change (16/9) [30]: -2.286 | Log2-fold change (16/9) [31]: -0.05498

Reference: publication PMC11968843, “Sulphostin-inspired N-phosphonopiperidones as selective covalent DPP8 and DPP9 inhibitors” (Nature Communications, 2025)
